The values below come from ChEMBL document CHEMBL3507680, “University of Dundee, Gates Library screen for HepG2 cell viability”.

This data set in a line: Human HepG2 cell viability assay in 384 well format. The arrangement: dose 125 nL, time 70.5 hour; cytotoxicity at 70.5 h: concentration not given beside the values. As to conditions: HepG2 cells, read-out: Inhibition. In kind it is toxicity, cell-based.
As to `CN(Cc1cccc(C#N)c1)c1ncc(C(N)=O)cc1Cl`, the cytotoxicity at 70.5 h was -8.78%.

On to `O=C1C(NCc2nnc3n2CCCC3)CCCN1c1ccccc1` (centres undefined), for which the cytotoxicity at 70.5 h was -7.11%. In the case of `NC(=O)C1CCN(S(=O)(=O)c2cnn(-c3ccccc3)c2)CC1` it was -4.05%; in that of `Cc1c[nH]nc1C1CCN(C(=O)Cn2cccn2)C1` (centres undefined), -7.3%. As to `c1csc(CNCC2COCc3c(-c4ccoc4)nnn3C2)n1` (centres undefined), the cytotoxicity at 70.5 h was -8.83%. On to `O=C(Cc1cccnc1)N1CCC2(CCN(C3CCOC3)CC2)C1` (centres undefined), for which the cytotoxicity at 70.5 h came to 20.9%.

Regarding `O=C(CCNC(=O)NC1CC1)NCc1ccccc1`, the cytotoxicity at 70.5 h is -6.54%. Turning to `Cc1nc(C2CCCN(C(=O)c3sc(C)nc3C)C2)no1` (centres undefined), the cytotoxicity at 70.5 h amounted to 37.2%. In the case of `CCC(=O)N1CCCC1c1ccsc1` (centres undefined) it was -5.78%; in that of `Cc1cnc(C(=O)N2C[C@H]3CC[C@@H]2CN(S(=O)(=O)N(C)C)C3)cn1`, -7.71%; in that of `O=C(c1ccncc1)N1CCCC(C2=Nc3ccccc3S(=O)(=O)N2)C1` (centres undefined), -3.07%. As to `COc1ccc(NC(=O)N2CCOCC(CN(C)C)C2)c(C)c1` (centres undefined), the cytotoxicity at 70.5 h turned out to be 17.5%. Consider `Cc1nn(C)c(C)c1NC(=O)CN1CCN(c2nccs2)C(C)C1` (centres undefined), for which the cytotoxicity at 70.5 h was -6.35%. The figure for `Cc1ccccc1-c1cc(C(=O)N2CCn3c(C)nnc3C2)[nH]n1` is 0.102%. In the case of `COc1cc(C(=O)O)ccc1OCC(=O)NCCc1ccccc1` it was -2.71%; in that of `O=C(C[S+]([O-])C1CCCC1)NCCOc1cccc(Cl)c1` (centres undefined), -6.11%; in that of `OC(CN(Cc1ccccc1)Cc1cscn1)c1ccco1` (centres undefined), -9.5%. In the case of `OCCn1nnnc1Cc1ccc(Br)cc1` it was -6.7%.

`CCSCc1nc(O)c2nnn(C3CCN(Cc4ccco4)CC3)c2n1`: the cytotoxicity at 70.5 h worked out at 9.06%. Turning to `COCCN1CCC(NCc2cc(F)ccc2F)C1` (centres undefined), the cytotoxicity at 70.5 h worked out at 22.5%.

For the molecule `CN1CCC(c2cccc(-c3cccc(C(=O)O)c3)n2)CC1`, the cytotoxicity at 70.5 h was -8.16%. For `Fc1ccc(-c2cnc(CN3CCCC3Cn3cccn3)o2)cc1` (centres undefined), the cytotoxicity at 70.5 h was -8.12%. `c1nc(N2CCCC(Cn3cncn3)C2)c2sccc2n1` (centres undefined): the cytotoxicity at 70.5 h was -2.8%.

Take `Cc1cccc(C(=O)N2CCCn3cnc(CN4CCCC4=O)c3C2)n1`: the cytotoxicity at 70.5 h amounted to 30.9%. Consider `CN(Cc1nc2ccccc2[nH]1)C(=O)CN(C)c1ccc(Cl)cn1`, for which the cytotoxicity at 70.5 h worked out at 7.7%.

On to `CCn1ccnc1CN(C)C1CCCN(Cc2ccccc2F)C1` (centres undefined), for which the cytotoxicity at 70.5 h is -1.31%.

With `NS(=O)(=O)CC1CCCN(C(=O)CCCC2CCCC2)C1` (centres undefined), the cytotoxicity at 70.5 h is -12.7%. As for `CC(C)[C@H]1CN(S(C)(=O)=O)C[C@@H]1NC(=O)c1ccnc(N)c1`, the cytotoxicity at 70.5 h was -1.08%. Consider `CC(C)(C)c1nc(CN(Cc2ccccc2F)C2CCCCC2)no1`, for which the cytotoxicity at 70.5 h was -8.5%. `CC(=O)NC1CCN(C(=O)Nc2cccc(SC(F)F)c2)CC1`: the cytotoxicity at 70.5 h was -0.185%. The figure for `O=C(CNC(=O)Nc1c(F)cc(F)cc1-c1ccccc1)NC1CC1` is -10.3%.

With `Cc1cc(N)cc(C2CN(Cc3cc[nH]n3)CCO2)n1` (centres undefined), the cytotoxicity at 70.5 h is -6.43%. On to `NCc1ccc(Oc2cccc(Cl)c2Cl)cc1`, for which the cytotoxicity at 70.5 h is 14.7%.

For `Cc1cnn(C2CCCN(C(=O)c3ccc(Cn4ccnc4)cc3)C2)c1` (centres undefined), the cytotoxicity at 70.5 h is 17.4%.

Consider `CC(NC(=O)COc1ccc(Cl)cc1Cl)c1nncn1C(C)C` (centres undefined), for which the cytotoxicity at 70.5 h was -3.07%. As for `O=C(Nc1nc2c(s1)CN(S(=O)(=O)C1CC1)CC2)c1ccccn1`, the cytotoxicity at 70.5 h is -1.49%. On to `COCCCNC(=O)N1CCN(C(=O)c2nsc3ccc(C)cc23)CC1`, for which the cytotoxicity at 70.5 h was found to be 20.4%. For `CC1CN(S(=O)(=O)c2ccc(C(=O)NCC(F)F)cc2)CCCO1` (centres undefined), the cytotoxicity at 70.5 h is -0.0719%. On to `COCCN1C(=O)CO[C@H]2CN(Cc3ccccc3Cl)C[C@@H]21`, for which the cytotoxicity at 70.5 h is -9.25%. The figure for `O=C1CCCCN1CCc1nc(-c2cccnn2)no1` is -2.5%; for `O=C(O)c1cc(N2C[C@H](NC(=O)C3CCOCC3)[C@@H](C3CC3)C2)ccn1` it is -11.7%; for `CC(C)(C)c1cc(C[C@H]2CNCC[C@H]2CC(=O)N2CCCCC2)no1` it is -1.6%. As to `CS(=O)(=O)N1C[C@@H](NC(=O)c2ccno2)[C@@H]2OCCC[C@@H]21`, the cytotoxicity at 70.5 h was -12.2%. On to `CCCS(=O)(=O)N1CCC2(CC1)CN(C(=O)N(C)C)c1ccccc12`, for which the cytotoxicity at 70.5 h is -10.2%. Turning to `O=C(C1CC=CC1)N1CCC2(CC1)OCCO2`, the cytotoxicity at 70.5 h is -4.94%. For the molecule `COc1cccc(CN2CCC3(CCN(c4ncc(F)cn4)CC3)C2)c1`, the cytotoxicity at 70.5 h was 0.663%. In the case of `O=C(CS(=O)(=O)Cc1cc(Cl)c2c(c1)OCO2)N1CCCC1` it was -0.922%. For the molecule `CC(C)c1nc2c(n1C)CCN(Cc1nc(-c3cccs3)no1)C2`, the cytotoxicity at 70.5 h was -9.62%.

As to `O=C1CC2(CCCCN2C(=O)c2ccsc2)CN1CC1CC1` (centres undefined), the cytotoxicity at 70.5 h came to 8.93%. For the molecule `Cc1ccccc1-n1ncc(C(C)N)c1C` (centres undefined), the cytotoxicity at 70.5 h turned out to be 26.7%. `CCC[C@@H]1CN(Cc2c[nH]nc2-c2ccc(OC)cc2)C[C@H]1NC(C)=O`: the cytotoxicity at 70.5 h was -7.5%. `CN1C(=O)C2(CC(=O)Nc3c2cnn3C(C)(C)C)c2ccccc21` (centres undefined): the cytotoxicity at 70.5 h is -18.7%.

`Oc1nnc(-c2cccs2)c2sc(N3CCCC3)nc12`: the cytotoxicity at 70.5 h is -6.61%. For `COc1ccc(-c2nc(CN3CCc4cncnc4C3)no2)cc1`, the cytotoxicity at 70.5 h is -3.32%. Consider `CCc1nnc(SCc2nonc2C)n1C`, for which the cytotoxicity at 70.5 h was -11.2%.

`Cc1cc(C(=O)N2CC[C@@]3(O)CCN(S(C)(=O)=O)C[C@H]3C2)c(C)n1C`: the cytotoxicity at 70.5 h was 18.6%. Regarding `O=C(NCCc1cc2nc(-c3ccncc3)ccn2n1)C1CC1`, the cytotoxicity at 70.5 h is -6.41%. As for `Cc1nc(CC(=O)N2c3ccccc3OCC2C)cs1` (centres undefined), the cytotoxicity at 70.5 h was -9.24%. The figure for `CS(=O)(=O)N1CCCCC1c1ccc(Nc2cnccn2)nc1` (centres undefined) is -7.53%. The figure for `CCC(CC)(CNC(=O)c1cccn1Cc1cccnc1)N(C)C` is -3.43%; for `CN(CCCc1n[nH]c(N)c1C#N)C(=O)NC1CC1` it is -2.78%. In the case of `Cc1nc(NC(=O)C(C)S(C)(=O)=O)sc1Cc1ccccc1F` (centres undefined) it was -7.43%; in that of `Cc1ccccc1C(=O)NC(C)CN1CCOC1=O` (centres undefined), -3.59%. Regarding `CC(C)NC(=O)[C@H]1C[C@H]2OCC[C@H]2N(Cc2ccc3ccccc3n2)C1`, the cytotoxicity at 70.5 h was -0.387%. On to `COc1ccc(CNC(Cn2cncn2)c2ccccc2)cc1C` (centres undefined), for which the cytotoxicity at 70.5 h was -4.57%. In the case of `Cc1ccc(N2CC[C@H]3OCC[C@@]3(C(=O)N3CCCO3)C2)nn1` it was -4.42%. With `O=C1N[C@@H]2CCN(C(=O)c3ccccc3)[C@@H]2C(=O)N1Cc1ccccc1`, the cytotoxicity at 70.5 h is -5.37%.

As to `Cc1cccc(CN2C(=O)C[C@H]3[C@@H]2CCN3CC2CC2)n1`, the cytotoxicity at 70.5 h is -2.5%. The figure for `CCN(CC)S(=O)(=O)NC(=O)c1cc(C)n(-c2ccccc2)n1` is 10.6%. For `Cc1nc(C)c(CN2CCOC[C@H](Oc3ccccc3)C2)s1`, the cytotoxicity at 70.5 h is -10.6%. Regarding `Cn1ccc(CN2CCC3(CCCN3CC3CC3)CC2)n1`, the cytotoxicity at 70.5 h was -6.07%.

As for `O=C(O)CCn1ccc(=O)c2ccccc21`, the cytotoxicity at 70.5 h is -3.76%. As to `O=C1CCCN1CCN1CCCCC1Cn1cccn1` (centres undefined), the cytotoxicity at 70.5 h was -10.6%. With `O=c1ccc(-c2cccs2)nn1CN1CCN(C2CCS(=O)(=O)C2)CC1` (centres undefined), the cytotoxicity at 70.5 h is -10.9%. For `COc1ccc(N2CCN(C(=O)C(C)n3cc(Br)cn3)CC2)cc1` (centres undefined), the cytotoxicity at 70.5 h was -1.02%. In the case of `N#Cc1cnc2cc(F)cc(F)c2c1NC1CCN(CC(N)=O)CC1` it was -4.4%. Consider `Cc1nn(C)cc1C(=O)N1CCCC(n2cncn2)C1` (centres undefined), for which the cytotoxicity at 70.5 h was -9.27%. With `Cc1cc(I)cnc1NC(=O)C(C)(C)C`, the cytotoxicity at 70.5 h was 5.65%. For the molecule `CCCNC(=O)CNc1cc(C(=O)N2CCSCC2)ccc1C`, the cytotoxicity at 70.5 h is -6%. Consider `CC(C)CSCCN1CCCN(S(C)(=O)=O)CC1`, for which the cytotoxicity at 70.5 h was 9.07%. On to `O=C(c1cc(Cl)cc(Cl)c1)N1CCN(c2nccs2)CC1`, for which the cytotoxicity at 70.5 h was -1.02%.

Consider `Cc1ccc(CN(CCN(C)C)Cc2c(C)nc3sccn23)o1`, for which the cytotoxicity at 70.5 h was 6.95%. In the case of `OCC1(Cc2ccc(Cl)cc2)CCN(Cc2cccnc2)CC1` it was 10.8%; in that of `COC(=O)c1sc(NCc2ccc(N3CCC(O)CC3)c(F)c2)nc1Cl`, -4.16%; in that of `CN(C)C1CCN(C(=O)CCc2cc(Br)cs2)CC1`, -0.796%. Consider `COc1ccsc1C(=O)Nc1cc(Br)c(=O)n(C)c1`, for which the cytotoxicity at 70.5 h was -4.19%. Regarding `COc1cccc(CCC(=O)N2CCN(Cc3noc(C)n3)CC2)c1`, the cytotoxicity at 70.5 h was -0.347%.

For `CNC(=O)COC1COC2(CCN(Cc3cccnc3)CC2)C1` (centres undefined), the cytotoxicity at 70.5 h was -9.98%.

Turning to `Cc1nc(C)n(CC2CN(Cc3cccc(C(N)=O)c3)CCO2)n1` (centres undefined), the cytotoxicity at 70.5 h is -4.7%. For the molecule `COc1c[nH]c(C(=O)N2CCN(c3cccc(Cl)c3)CC2)cc1=O`, the cytotoxicity at 70.5 h is -8.19%.

Consider `C/C=C(\C)CN1C[C@H](NC(=O)CCOC)[C@@H](c2ccc(C)o2)C1`, for which the cytotoxicity at 70.5 h is -18%.

As to `CC(C)n1nnnc1-c1ccc(NC(=O)C(C)(C)C#N)cc1F`, the cytotoxicity at 70.5 h was found to be 4.99%.

For `Cc1nccn1-c1cccc(C2CCCN2)n1` (centres undefined), the cytotoxicity at 70.5 h was -13.4%. For the molecule `Cc1cc(C)c2nc(CNC3CCCNC3=O)cc(O)c2c1` (centres undefined), the cytotoxicity at 70.5 h was -6.5%. For the molecule `COc1ccc2c(c1)C(C(=O)N(C)CCc1scnc1C)CC(=O)N2` (centres undefined), the cytotoxicity at 70.5 h is -5.27%. Consider `CN(C)c1ccc(C(=O)N2CCCN(C3CCCCC3)CC2)cn1`, for which the cytotoxicity at 70.5 h was -7.27%. As to `Cc1cc(-c2cncnc2)nc(C2CCCN2S(C)(=O)=O)n1` (centres undefined), the cytotoxicity at 70.5 h was -2.87%.

On to `O=C(Nc1ccncc1)NC1CCN(c2ccccc2OC(F)F)C1` (centres undefined), for which the cytotoxicity at 70.5 h came out at 1.15%. The figure for `CN(C)CC1CN(Cc2ccc(-n3cccn3)cc2)CCO1` (centres undefined) is 0.969%.
